Data taken from paper PMC6651548, “Synthesis and AChE Inhibitory Activity of Novel Thiazolylhydrazone Derivatives” (Molecules, 2019).

Key:
AChE = AChE (Homo sapiens, UniProt P22303); assay: biochemical; settings: for inhibition at 1000 µM: 10^−3 M; for inhibition at 100 µM: 10^−4 M
BChE = BChE (Homo sapiens, UniProt P06276); assay: Anticholinesterase activity assay (modified Ellman method), BChE; assay type: biochemical; settings: for inhibition at 1000 µM: 10^−3 M; for inhibition at 100 µM: 10^−4 M
Method: . Initially, all the obtained compounds were tested at 10^−3 M and 10^−4 M concentrations and the ChE inhibitory results are outlined in Table 1. […]. Compounds 3a, 3c and 3i indicated more than 50% activity at the 10^−4 M concentration. […]. […] According to the results of activity tests, some general results can be listed as follows. The compounds 3a, 3c and 3i contain the non-substituted, methoxy and trifluoromethyl substituents on the phenyl ring, respectively. […]
The inhibitory capacity of the obtained compounds on AChE and BChE biological activities was assessed using a modified Ellman’s spectrometric method, as described in our previous studies. Donepezil were used as a reference drug. All pipetting procedures in the enzyme inhibition assay were carried out via a robotics system, Biotek Precision XS (Winooski, VT, USA). A BioTek-Synergy H1 microplate reader (Winooski, VT, USA) was used to carry out measurements of percent inhibition at 412 nm, and the IC50 values of the selected compounds were performed as previously described.

hMAO-A = target: T1, hMAO-A (Homo sapiens, UniProt P21397); assay: Monoamine oxidase fluorometric inhibition assay, MAO-A; assay type: biochemical; settings: for inhibition at 1000 µM: 10^−3 M; for inhibition at 100 µM: 10^−4 M
T1 construct: purchased Sigma-Aldrich (Steinheim, Germany)
T1 sequence (P21397 1-527): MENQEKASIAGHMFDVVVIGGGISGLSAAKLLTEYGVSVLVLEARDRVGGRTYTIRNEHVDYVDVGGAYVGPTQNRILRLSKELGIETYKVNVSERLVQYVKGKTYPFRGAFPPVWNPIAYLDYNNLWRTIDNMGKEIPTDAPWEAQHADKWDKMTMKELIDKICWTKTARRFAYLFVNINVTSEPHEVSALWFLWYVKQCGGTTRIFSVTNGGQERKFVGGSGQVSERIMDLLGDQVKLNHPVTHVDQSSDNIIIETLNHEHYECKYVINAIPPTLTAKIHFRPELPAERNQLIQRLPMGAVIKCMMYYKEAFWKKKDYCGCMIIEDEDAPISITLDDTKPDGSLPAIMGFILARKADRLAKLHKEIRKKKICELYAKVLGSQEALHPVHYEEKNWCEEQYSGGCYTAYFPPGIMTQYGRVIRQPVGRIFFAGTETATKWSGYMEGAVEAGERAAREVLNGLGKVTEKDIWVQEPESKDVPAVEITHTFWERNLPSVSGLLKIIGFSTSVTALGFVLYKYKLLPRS
Method: In order to investigate the monoamine oxidase enzyme inhibitory effects of synthesized compounds, MAO-A and MAO-B enzyme activities were performed by using a fluorometric inhibition method. Moclobemide and selegiline were used as standard drugs for MAO-A and MAO-B enzymes, respectively. Test compounds and standard drugs were used in the same concentrations as in AChE and BChE enzyme activity assays. In Table 2, MAO enzyme inhibitory results are given. […]. To investigate the MAO-A and MAO-B enzyme inhibition profiles of the synthesized compounds, the fluorometric enzyme inhibition assay was carried out, as previously defined by us. Ampliflu™ Red (10-Acetyl-3,7-dihydroxyphenoxazine) was used as a fluorescence reagent in this assay.

hMAO-B = target: T2, hMAO-B (Homo sapiens, UniProt P27338); assay: biochemical; settings: for inhibition at 1000 µM: 10^−3 M; for inhibition at 1000 µM / inhibition at 100 µM: read-out: MAO-B % Inhibition; for inhibition at 100 µM: 10^−4 M; for IC50: read-out: MAO-B IC50
T2 construct: purchased Sigma-Aldrich (Steinheim, Germany)
T2 sequence (P27338 1-520): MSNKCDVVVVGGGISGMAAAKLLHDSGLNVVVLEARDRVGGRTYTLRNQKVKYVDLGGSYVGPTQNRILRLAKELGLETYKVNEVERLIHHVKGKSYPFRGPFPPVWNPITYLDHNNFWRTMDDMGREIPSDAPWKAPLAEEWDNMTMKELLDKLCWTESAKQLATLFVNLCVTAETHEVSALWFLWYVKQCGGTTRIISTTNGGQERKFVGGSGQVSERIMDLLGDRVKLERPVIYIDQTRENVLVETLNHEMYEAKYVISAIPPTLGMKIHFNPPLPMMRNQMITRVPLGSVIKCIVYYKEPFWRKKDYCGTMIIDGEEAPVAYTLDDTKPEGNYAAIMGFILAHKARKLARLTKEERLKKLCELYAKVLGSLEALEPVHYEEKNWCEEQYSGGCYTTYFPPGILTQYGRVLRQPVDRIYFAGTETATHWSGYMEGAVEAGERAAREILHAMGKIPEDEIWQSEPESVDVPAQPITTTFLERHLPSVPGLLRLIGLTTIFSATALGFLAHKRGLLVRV
Method: Test compounds and standard drugs were used in the same concentrations as in AChE and BChE enzyme activity assays. […] To investigate the MAO-A and MAO-B enzyme inhibition profiles of the synthesized compounds, the fluorometric enzyme inhibition assay was carried out, as previously defined by us. Ampliflu™ Red (10-Acetyl-3,7-dihydroxyphenoxazine) was used as a fluorescence reagent in this assay.

AChE, sequence (P22303 32-614): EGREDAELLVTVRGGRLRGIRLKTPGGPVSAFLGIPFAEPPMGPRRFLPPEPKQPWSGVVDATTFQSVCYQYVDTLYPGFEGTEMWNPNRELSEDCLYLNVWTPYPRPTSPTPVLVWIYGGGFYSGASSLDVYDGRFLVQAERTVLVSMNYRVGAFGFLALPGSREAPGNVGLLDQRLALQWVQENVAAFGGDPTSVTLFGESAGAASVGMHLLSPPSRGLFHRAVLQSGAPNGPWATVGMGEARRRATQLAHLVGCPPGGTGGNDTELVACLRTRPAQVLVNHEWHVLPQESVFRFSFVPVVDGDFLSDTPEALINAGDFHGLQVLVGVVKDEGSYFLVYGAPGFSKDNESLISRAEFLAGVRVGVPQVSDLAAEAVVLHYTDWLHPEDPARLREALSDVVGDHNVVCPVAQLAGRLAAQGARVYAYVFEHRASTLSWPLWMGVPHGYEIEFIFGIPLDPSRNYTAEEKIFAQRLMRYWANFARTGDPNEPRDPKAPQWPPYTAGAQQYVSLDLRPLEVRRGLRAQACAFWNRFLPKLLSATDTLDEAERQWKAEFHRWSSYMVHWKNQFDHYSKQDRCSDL
BChE, sequence (P06276 29-602): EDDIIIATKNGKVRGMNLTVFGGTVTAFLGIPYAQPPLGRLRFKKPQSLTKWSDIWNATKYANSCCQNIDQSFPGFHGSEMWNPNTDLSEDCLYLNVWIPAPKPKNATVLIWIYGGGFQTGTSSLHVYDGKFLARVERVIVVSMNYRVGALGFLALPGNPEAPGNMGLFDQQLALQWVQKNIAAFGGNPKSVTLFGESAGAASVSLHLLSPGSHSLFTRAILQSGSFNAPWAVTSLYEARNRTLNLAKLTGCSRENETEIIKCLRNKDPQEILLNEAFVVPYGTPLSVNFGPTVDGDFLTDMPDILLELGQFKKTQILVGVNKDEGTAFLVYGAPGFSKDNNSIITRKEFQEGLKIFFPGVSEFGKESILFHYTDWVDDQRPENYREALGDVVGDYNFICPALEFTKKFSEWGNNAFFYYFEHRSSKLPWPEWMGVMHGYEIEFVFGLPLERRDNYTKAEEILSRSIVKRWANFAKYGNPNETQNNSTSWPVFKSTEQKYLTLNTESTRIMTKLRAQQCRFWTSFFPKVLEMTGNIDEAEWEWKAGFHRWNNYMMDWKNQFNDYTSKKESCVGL

SMILES: Fc1ccc(N2CCN(c3ccc(C=NNc4nc(-c5ccccc5)cs4)cc3)CC2)cc1 [Compound 3a, 2-(2-(4-(4-(4-fluorophenyl)piperazin-1-yl)benzylidene)hydrazineyl)-4-phenylthiazole]
- inhibition at 1000 µM (AChE): 84.2 ± 0.89%
- IC50 (AChE; 10^−3–10^−9 M concentrations): 49.6 ± 2 nM
- inhibition at 1000 µM (BChE): 21.5 ± 0.38%
- inhibition at 100 µM (BChE): 19.3 ± 0.28%
- inhibition at 1000 µM (hMAO-A): 38.2 ± 0.95%
- inhibition at 100 µM (hMAO-A): 20.1 ± 0.63%
- inhibition at 1000 µM (hMAO-B): 78.2 ± 1.05%
- inhibition at 100 µM (hMAO-B): 70.2 ± 0.99%
- IC50 (hMAO-B): 2110 ± 86 nM

SMILES: Cc1ccc(-c2csc(NN=Cc3ccc(N4CCN(c5ccc(F)cc5)CC4)cc3)n2)cc1 [Compound 3b, 2-(2-(4-(4-(4-fluorophenyl)piperazin-1-yl)benzylidene)hydrazineyl)-4-(p-tolyl)thiazole]
- inhibition at 1000 µM (AChE): 75.3 ± 1.05%
- inhibition at 100 µM (AChE): 45.9 ± 0.88%
- inhibition at 1000 µM (BChE): 37.4 ± 0.67%
- inhibition at 100 µM (BChE): 25.3 ± 0.58%
- inhibition at 1000 µM (hMAO-A): 44.2 ± 1.08%
- inhibition at 100 µM (hMAO-A): 25.8 ± 0.8%
- inhibition at 1000 µM (hMAO-B): 60.8 ± 1.11%
- inhibition at 100 µM (hMAO-B): 46.7 ± 0.98%

SMILES: O=[N+]([O-])c1ccc(-c2csc(NN=Cc3ccc(N4CCN(c5ccc(F)cc5)CC4)cc3)n2)cc1 [Compound 3d, 2-(2-(4-(4-(4-fluorophenyl)piperazin-1-yl)benzylidene)hydrazineyl)-4-(4-nitrophenyl)thiazole]
- inhibition at 1000 µM (AChE): 76.7 ± 1.12%
- inhibition at 100 µM (AChE): 38.5 ± 0.76%
- inhibition at 1000 µM (BChE): 35.4 ± 0.49%
- inhibition at 100 µM (BChE): 31.9 ± 0.56%
- inhibition at 1000 µM (hMAO-A): 51 ± 0.97%
- inhibition at 100 µM (hMAO-A): 39.1 ± 0.71%
- inhibition at 1000 µM (hMAO-B): 75.7 ± 1.06%
- inhibition at 100 µM (hMAO-B): 65.2 ± 0.97%
- IC50 (hMAO-B): 5200 ± 153 nM

SMILES: N#Cc1ccc(-c2csc(NN=Cc3ccc(N4CCN(c5ccc(F)cc5)CC4)cc3)n2)cc1 [Compound 3e, 4-(2-(2-(4-(4-(4-fluorophenyl)piperazin-1-yl)benzylidene)hydrazineyl)thiazol-4-yl)benzonitrile]
- inhibition at 1000 µM (AChE): 71.2 ± 0.9%
- inhibition at 100 µM (AChE): 42.3 ± 0.63%
- inhibition at 1000 µM (BChE): 31.8 ± 0.61%
- inhibition at 100 µM (BChE): 24.9 ± 0.38%
- inhibition at 1000 µM (hMAO-A): 47.2 ± 0.88%
- inhibition at 100 µM (hMAO-A): 23.5 ± 0.6%
- inhibition at 1000 µM (hMAO-B): 58.1 ± 0.9%
- inhibition at 100 µM (hMAO-B): 43.1 ± 0.71%

SMILES: Fc1ccc(-c2csc(NN=Cc3ccc(N4CCN(c5ccc(F)cc5)CC4)cc3)n2)cc1 [Compound 3f, 4-(4-fluorophenyl)-2-(2-(4-(4-(4-fluorophenyl)piperazin-1-yl)benzylidene)hydrazineyl)thiazole]
- inhibition at 1000 µM (AChE): 78.4 ± 1.04%
- inhibition at 100 µM (AChE): 48.1 ± 0.87%
- inhibition at 1000 µM (BChE): 28.2 ± 0.42%
- inhibition at 100 µM (BChE): 20.4 ± 0.35%
- inhibition at 1000 µM (hMAO-A): 30.1 ± 0.47%
- inhibition at 100 µM (hMAO-A): 19.3 ± 0.41%
- inhibition at 1000 µM (hMAO-B): 57.3 ± 1.03%
- inhibition at 100 µM (hMAO-B): 39.2 ± 0.79%

SMILES: Fc1ccc(N2CCN(c3ccc(C=NNc4nc(-c5ccc(Cl)cc5)cs4)cc3)CC2)cc1 [Compound 3g, 4-(4-chlorophenyl)-2-(2-(4-(4-(4-fluorophenyl)piperazin-1-yl)benzylidene)hydrazineyl)thiazole]
- inhibition at 1000 µM (AChE): 64.5 ± 0.67%
- inhibition at 100 µM (AChE): 37.8 ± 0.6%
- inhibition at 1000 µM (BChE): 38.54 ± 0.35%
- inhibition at 100 µM (BChE): 20.2 ± 0.35%
- inhibition at 1000 µM (hMAO-A): 48.2 ± 0.97%
- inhibition at 100 µM (hMAO-A): 30.2 ± 0.5%
- inhibition at 1000 µM (hMAO-B): 68.1 ± 1.12%
- inhibition at 100 µM (hMAO-B): 41.8 ± 0.86%

SMILES: Fc1ccc(N2CCN(c3ccc(C=NNc4nc(-c5ccc(Br)cc5)cs4)cc3)CC2)cc1 [Compound 3h, 4-(4-bromophenyl)-2-(2-(4-(4-(4-fluorophenyl)piperazin-1-yl)benzylidene)hydrazineyl)thiazole]
- inhibition at 1000 µM (AChE): 75.3 ± 1.06%
- inhibition at 100 µM (AChE): 47.1 ± 0.74%
- inhibition at 1000 µM (BChE): 40.6 ± 0.68%
- inhibition at 100 µM (BChE): 35.5 ± 0.41%
- inhibition at 1000 µM (hMAO-A): 34.2 ± 0.58%
- inhibition at 100 µM (hMAO-A): 22.2 ± 0.47%
- inhibition at 1000 µM (hMAO-B): 68.9 ± 1.25%
- inhibition at 100 µM (hMAO-B): 39.1 ± 0.63%

SMILES: O=C(NCCN1CCOCC1)c1ccc(Cl)cc1 [Moclobemide, reference compound]
- inhibition at 1000 µM (hMAO-A): 91.2 ± 2.8%
- inhibition at 100 µM (hMAO-A): 78.2 ± 2.55%
